In US20210002282A1 (DR. REDDY'S LABORATORIES LIMITED, priority 2018, published 2021):
Read-outs that look alike come from different tables or passages of the source.

Assays:
[1] = Hygroscopicity of solid forms (statement only); assay type: physicochemical
[2] = 25° C. ± 2° C. 60% RH ± 5RH, 1 Month
[3] = 25° C. ± 2° C. 60% RH ± 5RH, 3 Months
[4] = 25° C. ± 2° C. 60% RH ± 5RH, Initial
[5] = 40° C. ± 2° C. 75% RH ± 5RH, 1 Month
[6] = 40° C. ± 2° C. 75% RH ± 5RH, 3 Months
[7] = 40° C. ± 2° C. 75% RH ± 5RH, Initial

Row | SMILES | % Total Impurities [2] [%] | % Water content [2] [%] | Description [2] | % Total Impurities [3] [%] | % Water content [3] [%] | Description [3] | % Total Impurities [4] [%] | % Water content [4] [%] | Description [4] | PXRD [4] | % Total Impurities [5] [%] | % Water content [5] [%] | Description [5] | % Total Impurities [6] [%] | % Water content [6] [%] | Description [6] | % Total Impurities [7] [%] | % Water content [7] [%] | Description [7] | PXRD [7] | also measured
1 | C=CC(=O)N1CCC[C@@H](n2nc(-c3ccc(Oc4ccccc4)cc3)c3c(N)ncnc32)C1 [Form D19, Ibrutinib] | 0.42 | 0.20 | Off-White | 0.42 | 0.09 | Off-White | 0.41 | 0.19 | Off-White | Crystalline | 0.49 | 0.13 | Off-White | 0.50 | 0.11 | Off-White | 0.41 | 0.19 | Off-White | Crystalline | Hexanoic acid content (%) [2]: 21.73%; Hexanoic acid content (%) [3]: 21.24%; Hexanoic acid content (%) [4]: 23.13%; Hexanoic acid content (%) [5]: 21.48%; Hexanoic acid content (%) [6]: 20.79%; Hexanoic acid content (%) [7]: 23.13%; hygroscopicity [1]: non-hygroscopic
2 | C=CC(=O)N1CCC[C@@H](n2nc(-c3ccc(Oc4ccccc4)cc3)c3c(N)ncnc32)C1 [Form D18, Ibrutinib] | 0.46 | 0.10 | White | 0.39 | 0.19 | White | 0.38 | 0.13 | White | Crystalline | 0.45 | 0.16 | White | 0.45 | 0.29 | White | 0.38 | 0.13 | White | Crystalline | Octanoic acid content (%) [2]: 24.70%; Octanoic acid content (%) [3]: 25.57%; Octanoic acid content (%) [4]: 25.24%; Octanoic acid content (%) [5]: 24.70%; Octanoic acid content (%) [6]: 24.99%; Octanoic acid content (%) [7]: 25.24%; hygroscopicity [1]: non-hygroscopic
